Reference: ChEMBL document CHEMBL6087458, “The Discovery of a Novel AXL/Triple Angiokinase Inhibitor Based on 6-Chloro-Substituted Indolinone and Side Chain Methyl Substitution Inhibiting Pancreatic Cancer Growth and Metastasis” (J Med Chem, 2025)

Legend:
[1] = tested on: BXPC-3; experiment: cells; conditions: Homo sapiens, BXPC-3, 72 h
Description: Antiproliferative activity against human BXPC-3 cells assessed as cell viability incubated for 72 hrs by MTT assay

[2] = tested on: MDA-MB-231; experiment: cells; conditions: Homo sapiens, MDA-MB-231, 72 h
Description: Antiproliferative activity against human MDA-MB-231 cells assessed as cell viability incubated for 72 hrs by MTT assay

[3] = Cytotoxicity against mouse NIH/3T3 cells assessed as cell viability incubated for 72 hrs by MTT assay; assay type: toxicity, cell-based, NIH3T3
[4] = Cytotoxicity against human HUVEC cells assessed as cell viability incubated for 72 hrs by MTT assay; assay type: toxicity, cell-based

SMILES	IC50 [1] [nM]	IC50 [2] [nM]	IC50 at 72 h [3] [nM]	IC50 at 72 h [4] [nM]
CN(C(=O)CN1CCN(CCO)CC1)c1ccc(N/C(=C2\C(=O)Nc3cc(Cl)ccc32)c2ccccc2)cc1	1540	1350	2200	1650
COC(=O)c1ccc2c(c1)NC(=O)/C2=C(\Nc1ccc(N(C)C(=O)[C@@H](C)N2CCN(C)CC2)cc1)c1ccccc1			3750	1360
COC(=O)c1ccc2c(c1)NC(=O)/C2=C(\Nc1ccc(N(C)C(=O)[C@H](C)N2CCN(C)CC2)cc1)c1ccccc1			1170	1650
CN(C(=O)CN1CCN(CCO)CC1)c1ccc(N/C(=C2\C(=O)Nc3cc(Br)ccc32)c2ccccc2)cc1	3570	3210	2950	2490
CN(C(=O)CN1CCC(N(C)C)CC1)c1ccc(N/C(=C2\C(=O)Nc3cc(Br)ccc32)c2ccccc2)cc1	3020	2970	2310	1940
CN(C)CCN(C)CC(=O)N(C)c1ccc(N/C(=C2\C(=O)Nc3cc(Br)ccc32)c2ccccc2)cc1	4220	4960	5890	4710
COC(=O)c1ccc2c(c1)NC(=O)/C2=C(\Nc1ccc(N(C)C(=O)CN(C)CCN(C)C)cc1)c1ccccc1	6010	> 10000	3570	2970
CC(C(=O)N(C)c1ccc(N/C(=C2\C(=O)Nc3cc(Cl)ccc32)c2ccccc2)cc1)N1CCSCC1 (racemic)	> 10000	> 10000	> 10000	> 10000
CC(C(=O)N(C)c1ccc(N/C(=C2\C(=O)Nc3cc(Cl)ccc32)c2ccccc2)cc1)N1CCCN(C)CC1 (racemic)	1740	2040	2200	690
COC(=O)c1ccc2c(c1)NC(=O)/C2=C(\Nc1ccc(N(C)C(=O)C(C)N(C)CCN(C)C)cc1)c1ccccc1 (racemic)	5780	5980	2570	2000
CC(C(=O)N(C)c1ccc(N/C(=C2\C(=O)Nc3cc(Br)ccc32)c2ccccc2)cc1)N1CCN(C)CC1 (racemic)	1890	1440	2140	950
CCN1CCN(C(C)C(=O)N(C)c2ccc(N/C(=C3\C(=O)Nc4cc(Br)ccc43)c3ccccc3)cc2)CC1 (racemic)	2440	2470	1870	670
CC(C(=O)N(C)c1ccc(N/C(=C2\C(=O)Nc3cc(Br)ccc32)c2ccccc2)cc1)N1CCC(N(C)C)CC1 (racemic)	1740	1490	1590	1110
CC(C(=O)N(C)c1ccc(N/C(=C2\C(=O)Nc3cc(Cl)ccc32)c2ccccc2)cc1)N1CCN(C)CC1 (racemic)	1890	1240	1430	840
CC(C(=O)N(C)c1ccc(N/C(=C2\C(=O)Nc3cc(Cl)ccc32)c2ccccc2)cc1)N1CCC(N(C)C)CC1 (racemic)	2040	1980	980	830

Now from value to compound, other results behind:

IC50 [1] [nM]	IC50 [2] [nM]	SMILES	IC50 at 72 h [3] [nM]	IC50 at 72 h [4] [nM]
> 10000	> 10000	COC(=O)c1ccc2c(c1)NC(=O)/C2=C(\Nc1ccc(N(C)C(=O)CN2CCOCC2)cc1)c1ccccc1	> 10000	> 10000
2980	4540	CN1CCN(CC(=O)N(C)c2ccc(N/C(=C3\C(=O)Nc4cc(Cl)ccc43)c3ccccc3)cc2)CC1	3110	1800
2560	6340	COC(=O)c1ccc2c(c1)NC(=O)/C2=C(\Nc1ccc(N(C)C(=O)CN2CCC(N(C)C)CC2)cc1)c1ccccc1	3510	2970
> 10000	> 10000	CN(C(=O)CN1CCOCC1)c1ccc(N/C(=C2\C(=O)Nc3cc(Br)ccc32)c2ccccc2)cc1	> 10000	> 10000
3730	7830	COC(=O)c1ccc2c(c1)NC(=O)/C2=C(\Nc1ccc(N(C)C(=O)CN2CCCN(C)CC2)cc1)c1ccccc1	3820	2910
3570	3910	CCN1CCN(CC(=O)N(C)c2ccc(N/C(=C3\C(=O)Nc4cc(Br)ccc43)c3ccccc3)cc2)CC1	3200	1570
3140	3870	CN1CCCN(CC(=O)N(C)c2ccc(N/C(=C3\C(=O)Nc4cc(Cl)ccc43)c3ccccc3)cc2)CC1	4520	4980
2150	3290	CN1CCCN(CC(=O)N(C)c2ccc(N/C(=C3\C(=O)Nc4cc(Br)ccc43)c3ccccc3)cc2)CC1	5980	3190
1780	3190	CCN1CCN(CC(=O)N(C)c2ccc(N/C(=C3\C(=O)Nc4cc(Cl)ccc43)c3ccccc3)cc2)CC1	1950	1850
2310	5980	CCN1CCN(CC(=O)N(C)c2ccc(N/C(=C3\C(=O)Nc4cc(C(=O)OC)ccc43)c3ccccc3)cc2)CC1	3440	2720
> 10000	> 10000	COC(=O)c1ccc2c(c1)NC(=O)/C2=C(\Nc1ccc(N(C)C(=O)C(C)N2CCSCC2)cc1)c1ccccc1 (racemic)	> 10000	> 10000
> 10000	> 10000	COC(=O)c1ccc2c(c1)NC(=O)/C2=C(\Nc1ccc(N(C)C(=O)C(C)N2CCNCC2)cc1)c1ccccc1 (racemic)	> 10000	> 10000
1660	5780	COC(=O)c1ccc2c(c1)NC(=O)/C2=C(\Nc1ccc(N(C)C(=O)C(C)N2CCCN(C)CC2)cc1)c1ccccc1 (racemic)	2930	1810
1640	5070	CCN1CCN(C(C)C(=O)N(C)c2ccc(N/C(=C3\C(=O)Nc4cc(C(=O)OC)ccc43)c3ccccc3)cc2)CC1 (racemic)	2100	1500
> 10000	> 10000	COC(=O)c1ccc2c(c1)NC(=O)/C2=C(\Nc1ccc(N(C)C(=O)C(C)N2CCOCC2)cc1)c1ccccc1 (racemic)	> 10000	> 10000
1690	5540	COC(=O)c1ccc2c(c1)NC(=O)/C2=C(\Nc1ccc(N(C)C(=O)C(C)N2CCC(N(C)C)CC2)cc1)c1ccccc1 (racemic)	1990	1080
2470	4960	COC(=O)c1ccc2c(c1)NC(=O)/C2=C(\Nc1ccc(N(C)C(=O)C(C)N2CCN(CCO)CC2)cc1)c1ccccc1 (racemic)	1370	1090
3740	5340	COC(=O)c1ccc2c(c1)NC(=O)/C2=C(\Nc1ccc(N(C)C(=O)C(C)N2CCN(C)CC2)cc1)c1ccccc1 (racemic)	2250	1430
> 10000	> 10000	CC(C(=O)N(C)c1ccc(N/C(=C2\C(=O)Nc3cc(Cl)ccc32)c2ccccc2)cc1)N1CCOCC1 (racemic)	> 10000	> 10000
